{
  "source": "patent US8828977B2",
  "about": "“Method of treating a subject suffering from degenerative disc disease using a matrix metalloprotease inhibitor” (priority 2006, dated 2014)",
  "origin": "cited, not measured here",
  "key": {"[1]": {"conditions": "rats"}, "[2]": {"test_system": "human melanoma cell line", "conditions": "activity comparable to doxycycline"}, "[3]": {"test_system": "AIDS-associated Kaposi's sarcoma"}, "[4]": {"test_system": "iNOS mRNA"}, "[5]": {"molecular_target": "T1, COX-2 (Homo sapiens, UniProt P35354)", "T1 sequence (P35354 18-604)": "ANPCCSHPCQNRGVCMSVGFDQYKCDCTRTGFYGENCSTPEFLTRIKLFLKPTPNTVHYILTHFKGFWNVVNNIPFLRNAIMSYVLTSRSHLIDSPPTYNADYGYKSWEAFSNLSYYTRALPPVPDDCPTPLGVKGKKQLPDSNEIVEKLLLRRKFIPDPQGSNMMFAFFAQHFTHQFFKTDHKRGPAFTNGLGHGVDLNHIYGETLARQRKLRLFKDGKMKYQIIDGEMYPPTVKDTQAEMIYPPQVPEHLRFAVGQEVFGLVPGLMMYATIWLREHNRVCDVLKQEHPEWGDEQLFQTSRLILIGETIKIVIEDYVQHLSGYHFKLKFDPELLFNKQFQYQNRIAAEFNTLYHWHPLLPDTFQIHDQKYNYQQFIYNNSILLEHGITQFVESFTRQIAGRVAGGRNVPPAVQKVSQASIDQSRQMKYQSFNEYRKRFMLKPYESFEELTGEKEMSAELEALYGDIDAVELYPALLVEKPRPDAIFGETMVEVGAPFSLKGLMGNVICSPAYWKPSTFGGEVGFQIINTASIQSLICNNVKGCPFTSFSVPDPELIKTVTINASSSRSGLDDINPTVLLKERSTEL", "conditions": "in vitro"}, "[6]": {"molecular_target": "T2, MMP-2 (Homo sapiens, UniProt P08253)", "T2 sequence (P08253 110-660)": "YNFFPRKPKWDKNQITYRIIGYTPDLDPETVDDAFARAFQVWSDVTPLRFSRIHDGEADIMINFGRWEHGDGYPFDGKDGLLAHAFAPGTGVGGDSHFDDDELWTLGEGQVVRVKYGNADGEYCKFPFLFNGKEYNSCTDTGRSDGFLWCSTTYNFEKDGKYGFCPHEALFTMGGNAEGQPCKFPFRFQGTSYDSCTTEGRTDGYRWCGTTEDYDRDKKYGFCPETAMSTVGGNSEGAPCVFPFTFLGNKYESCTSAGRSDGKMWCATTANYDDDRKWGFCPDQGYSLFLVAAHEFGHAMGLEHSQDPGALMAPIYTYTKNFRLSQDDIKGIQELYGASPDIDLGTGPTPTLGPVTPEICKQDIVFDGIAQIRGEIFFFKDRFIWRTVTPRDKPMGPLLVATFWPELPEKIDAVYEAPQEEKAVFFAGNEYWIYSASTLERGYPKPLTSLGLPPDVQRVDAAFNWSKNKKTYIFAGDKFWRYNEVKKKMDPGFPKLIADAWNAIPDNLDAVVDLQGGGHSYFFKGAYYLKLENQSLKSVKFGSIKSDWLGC"}, "[7]": {"molecular_target": "MMP-9 (Homo sapiens, UniProt P14780)", "sequence (P14780 94-707)": "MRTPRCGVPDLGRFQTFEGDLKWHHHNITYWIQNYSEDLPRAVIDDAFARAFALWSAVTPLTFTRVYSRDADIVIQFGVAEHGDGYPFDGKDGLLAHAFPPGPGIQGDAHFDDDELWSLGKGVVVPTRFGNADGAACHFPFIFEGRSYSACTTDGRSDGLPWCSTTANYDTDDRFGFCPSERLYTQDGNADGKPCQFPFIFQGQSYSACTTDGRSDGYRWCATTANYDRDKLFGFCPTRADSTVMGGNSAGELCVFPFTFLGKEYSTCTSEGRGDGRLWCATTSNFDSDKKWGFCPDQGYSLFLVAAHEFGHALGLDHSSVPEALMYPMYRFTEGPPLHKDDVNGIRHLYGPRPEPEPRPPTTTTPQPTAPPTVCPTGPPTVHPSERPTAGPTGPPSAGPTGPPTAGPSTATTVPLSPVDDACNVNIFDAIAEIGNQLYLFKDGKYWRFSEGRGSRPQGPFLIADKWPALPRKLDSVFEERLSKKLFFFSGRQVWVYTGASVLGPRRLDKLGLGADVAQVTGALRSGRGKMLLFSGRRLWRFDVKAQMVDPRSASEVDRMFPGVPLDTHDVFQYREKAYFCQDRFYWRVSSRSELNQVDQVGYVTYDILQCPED", "conditions": "of the seven CMTs evaluated, zymography"}, "[8]": {"conditions": "two dose-escalation studies in humans"}, "[9]": {"test_system": "panel of prostate cancer cell lines", "conditions": "MTT assays"}, "[10]": {"test_system": "metastatic melanoma cells", "conditions": "metastatic melanoma cells in vitro"}, "[11]": {"molecular_target": "T2, MMP-2", "conditions": "of the seven CMTs evaluated, zymography"}, "[12]": {"test_system": "rheumatoid arthritis synoviocytes", "conditions": "activity comparable to doxycycline"}, "[13]": {"test_system": "HUVEC", "conditions": "in vitro"}, "[14]": {"test_system": "lung foci (experimental metastasis)", "conditions": "SCID mice"}, "[15]": {"test_system": "prostate cancer cell lines"}, "[16]": {"conditions": "18 KS patients, sampling lasted only 24 h"}, "[17]": {"test_system": "human umbilical vein endothelial cells (HUVECs)", "conditions": "HUVECs stimulated with angiogenic factors in vitro"}, "[18]": {"conditions": "rats, single oral dose of suspension"}, "[19]": {"assay": "not given", "remark": "listed apart in the source"}, "[20]": {"conditions": "monkeys, any dosing schedule, after three to five doses"}, "[21]": {"conditions": "142 animals, daily gavage 40 mg/kg for 7 days"}, "[22]": {"test_system": "Dunning MatLyLu rat prostate tumor"}, "[23]": {"conditions": "stability and solubility inversely related"}, "[24]": {"assay": "not given", "remark": "listed apart in the source"}, "[25]": {"test_system": "refractory metastatic cancers"}, "[26]": {"test_system": "immune responses", "conditions": "in vivo"}, "[27]": {"conditions": "mice"}, "[28]": {"conditions": "non-competitive component, read-out: Ki′ (the dissociation equilibrium constant) value for MMP-2"}, "[29]": {"conditions": "35 patients with refractory metastatic cancers"}},
  "note": "Like-named read-outs stand apart in the source and are kept apart here.",
  "data": [
    {"smiles": "NC(=O)C1=C(O)C[C@@H]2C[C@@H]3Cc4cccc(O)c4C(=O)C3=C(O)[C@]2(O)C1=O", "note": "[CMT-3]", "values": [
      {"measurement": "terminal half-life", "setting": "[1]", "value": 7, "unit": "h"},
      {"measurement": "inhibiting the in vitro invasive ability", "setting": "[2]", "value": "most active"},
      {"measurement": "median duration of response", "setting": "[3]; 18 KS patients", "value": "> 25", "unit": "weeks"},
      {"measurement": "median time to response", "setting": "[3]; 18 KS patients", "value": 4, "unit": "weeks"},
      {"measurement": "overall response rate", "setting": "[3]; 18 KS patients, one complete and seven partial responses", "value": 44, "unit": "%"},
      {"measurement": "doses not tolerated", "setting": "[3]; KS patients", "value": "> 50", "unit": "mg/m^2/day"},
      {"measurement": "evaluable patients with decrease in plasma concentration of MMP-2", "setting": "[3]; KS patients", "value": 61, "unit": "%"},
      {"measurement": "evaluable patients with decrease in plasma concentration of MMP-9", "setting": "[3]; KS patients", "value": 37, "unit": "%"},
      {"measurement": "doses reasonably well tolerated", "setting": "[3]; KS patients, dose levels 25, 50 and 70", "value": "up to 70 mg/m^2/day"},
      {"measurement": "increase of MMP-2 level from baseline", "setting": "[3]; non-responding patients", "value": 300, "unit": "ng/mL"},
      {"measurement": "decrease of MMP-2 level from baseline", "setting": "[3]; responding patients", "value": 56, "unit": "ng/mL"},
      {"measurement": "iNOS mRNA degradation", "setting": "[4]", "value": "increases iNOS mRNA degradation"},
      {"measurement": "COX-2 enzyme activity", "setting": "[5]", "value": "inhibit COX-2 enzyme activity"},
      {"measurement": "Ki", "setting": "[6]; competitive component, read-out: dissociation binding constant (Ki) value for MMP-2", "value": 74, "unit": "µM"},
      {"measurement": "Ki", "setting": "[6]; [28]", "value": 148, "unit": "µM"},
      {"measurement": "rank as MMP-9 inhibitor", "setting": "[7]", "value": "second most potent MMP-9 inhibitor"},
      {"measurement": "dose up to which plasma levels increased (plateau of steady-state concentration above)", "setting": "[8]", "value": "up to 50 mg/m^2/day"},
      {"measurement": "cytotoxicity", "setting": "[9]", "value": "significantly cytotoxic"},
      {"measurement": "vascular mimicry", "setting": "[10]", "value": "inhibited this mechanism"},
      {"measurement": "rank as MMP-2 inhibitor", "setting": "[11]", "value": "most effective MMP-2 inhibitor"},
      {"measurement": "inhibiting the in vitro invasive ability", "setting": "[12]", "value": "most active"},
      {"measurement": "HUVEC proliferation", "setting": "[13]", "value": "inhibited HUVEC proliferation"},
      {"measurement": "metastatic invasion compared with control animals", "setting": "[14]; higher dose 100 mg/kg", "value": "did not significantly impact"},
      {"measurement": "number of lung foci", "setting": "[14]; orally at 40 mg/kg", "value": "significantly reduced"},
      {"measurement": "apoptosis, necrosis and cell-cycle arrest", "setting": "[15]; added to prostate cell lines in vitro", "value": "increased apoptosis and necrosis as well as cell-cycle arrest"},
      {"measurement": "time of exposure to apoptosis induction", "setting": "[15]; prostate cancer cell lines", "value": "≤ 4", "unit": "h"},
      {"measurement": "induction of apoptosis", "setting": "[15]; prostate cancer cell lines, concentration-dependent", "value": "induced apoptosis"},
      {"measurement": "water solubility", "value": "~10", "unit": "µg/mL"},
      {"measurement": "median half-life", "setting": "[16]", "value": 39.3, "unit": "h"},
      {"measurement": "microtubule formation", "setting": "[17]", "value": "inhibited microtubule formation"},
      {"measurement": "half-life", "setting": "[18]", "value": "approximately 6 h"},
      {"measurement": "dose with histopathological lesions in the small intestine and thymus", "setting": "[19]; rats", "value": 100, "unit": "mg/kg/day"},
      {"measurement": "plasma level at which dose-limiting gastrointestinal toxicities occurred", "setting": "[19]; rats (stated for both species)", "value": "≥ 15000", "unit": "ng/mL"},
      {"measurement": "dose resulting in mortalities", "setting": "[20]", "value": 100, "unit": "mg/kg/day"},
      {"measurement": "adverse effects or weight loss", "setting": "[21]", "value": "no adverse effects or weight loss"},
      {"measurement": "instances of lung metastases", "setting": "[22]; daily gavage at 40 mg/kg for 7 days, controls 59.5±13.9", "value": "28.9±15.4", "unit": "tumors/animal"},
      {"measurement": "decrease of primary tumor incidence", "setting": "[22]; pre-dosing the rats for 7 days", "value": "55±9", "unit": "%"},
      {"measurement": "delay of tumor growth", "setting": "[22]; pre-dosing the rats for 7 days", "value": "27±9.3", "unit": "%"},
      {"measurement": "reduction in metastases", "setting": "[22]; pre-dosing the rats for 7 days", "value": "58±8", "unit": "%"},
      {"measurement": "pH of maximum stability", "setting": "[23]", "value": "< 4"},
      {"measurement": "total apparent clearance", "setting": "[24]; [29]", "value": "0.163 ± 0.0967", "unit": "mL/min/kg"},
      {"measurement": "median half-life", "setting": "[24]; 35 patients, one-compartment model", "value": "approximately 56.1 h"},
      {"measurement": "median apparent total clearance", "setting": "[24]; humans", "value": 0.17, "unit": "mL/min/kg"},
      {"measurement": "median pseudo-steady-state apparent volume of distribution", "setting": "[24]; humans", "value": 0.64, "unit": "L/kg"},
      {"measurement": "patients experiencing some phototoxicity", "setting": "[25]; 50 mg/m^2/day, sun-block mandatory", "value": "over 50%"},
      {"measurement": "cases of drug-induced lupus", "setting": "[25]; [29]", "value": "three cases"},
      {"measurement": "cases of reversible sideroblastic anemia", "setting": "[25]; [29]", "value": "three cases"},
      {"measurement": "maximum tolerated dose (MTD)", "setting": "[25]; [29]", "value": 98, "unit": "mg/m^2/day"},
      {"measurement": "change between pre- and post-treatment levels of MMP-2 or MMP-9", "setting": "[25]; 35 patients, overall", "value": "no significant change"},
      {"measurement": "sunburn (photosensitivity), dose-limiting", "setting": "[25]; highest dose 98 mg/m^2/day, despite prophylactic measures", "value": "all 18 patients developed sunburn"},
      {"measurement": "musculoskeletal side effects", "setting": "[25]; human trials", "value": "no reports"},
      {"measurement": "disease-stabilization", "setting": "[25]; three out of seven patients with tumors of non-epithelial origin", "value": 43, "unit": "%"}
    ]},
    {"smiles": "C[C@H]1c2cccc(O)c2C(=O)C2=C(O)[C@]3(O)C(=O)C(C(N)=O)=C(O)[C@@H](N(C)C)[C@@H]3[C@@H](O)[C@@H]21", "note": "[doxycycline]", "values": [
      {"measurement": "effect on immune responses", "setting": "[26]", "value": "moderately inhibit immune responses"},
      {"measurement": "Ki", "setting": "[6]; [28]", "value": 144, "unit": "µM"},
      {"measurement": "cytotoxicity", "setting": "[9]", "value": "significantly cytotoxic"},
      {"measurement": "hepatotoxic effect", "setting": "[27]", "value": "hepatotoxic effect"}
    ]}
  ]
}
